What follows are compounds tested against T1, Human sodium/glucose co-transporter type 2 (SGLT2) (Homo sapiens, UniProt P31639) (assay: In vitro human SGLT2 inhibition assay (14C-AMG uptake)). Settings: HEK293 cells expressing human HA-SGLT2; potent = SGLT2 IC50 of less than about 500 nM; read-out: SGLT2 IC50 (potent SGLT2 inhibitor mark).
T1 construct: HA; expressed in transfected cells
T1 sequence (P31639 1-672): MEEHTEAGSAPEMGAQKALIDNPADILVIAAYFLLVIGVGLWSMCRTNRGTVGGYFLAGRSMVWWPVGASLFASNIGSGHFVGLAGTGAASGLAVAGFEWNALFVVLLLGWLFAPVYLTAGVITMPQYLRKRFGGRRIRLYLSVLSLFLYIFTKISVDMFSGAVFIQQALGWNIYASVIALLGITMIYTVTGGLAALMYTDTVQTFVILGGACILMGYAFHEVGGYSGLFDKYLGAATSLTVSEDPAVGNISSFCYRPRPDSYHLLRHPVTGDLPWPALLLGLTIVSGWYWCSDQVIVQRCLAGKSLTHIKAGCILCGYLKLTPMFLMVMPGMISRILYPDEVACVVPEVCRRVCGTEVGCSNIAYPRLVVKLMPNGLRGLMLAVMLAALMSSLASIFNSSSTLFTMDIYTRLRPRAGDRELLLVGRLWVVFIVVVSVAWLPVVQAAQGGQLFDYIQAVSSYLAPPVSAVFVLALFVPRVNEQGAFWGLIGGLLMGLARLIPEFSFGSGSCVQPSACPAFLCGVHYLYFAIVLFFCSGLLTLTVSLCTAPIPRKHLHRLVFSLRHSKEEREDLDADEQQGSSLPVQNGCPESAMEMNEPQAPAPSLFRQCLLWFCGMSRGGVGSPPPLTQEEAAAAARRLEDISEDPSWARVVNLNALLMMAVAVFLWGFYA
Format: cell-based
Procedure: HEK293 cells were transfected with the human HA-SGLT2-pIRESpuro2 vector and the bulk stable cell line was selected in presence of 0.5 μg/ml of puromycin. Human HA-SGLT2 cells were maintained in DMEM media containing 10% FBS, 1% GPS and 0.5 μg/ml of puromycin.
The HEK293 cells expressing the human HA-SGLT2 were seeded in 384 well plates (30,000 cells/well) in DMEM media containing 10% FBS, 1% GPS and 0.5 μg/ml of puromycin, then incubated overnight at 37 C, 5% CO2. Cells were then washed with uptake buffer (140 mM NaCl, 2 mM KCl, 1 mM CaCl2, 1 mM MgCl2, 10 mM HEPES, 5 mM Tris, 1 mg/ml bovine serum albumin (BSA), pH 7.3). Twenty microliters of uptake buffer with or without testing compounds were added to the cells. Then, 20 microliters of uptake buffer containing ^14C-AMG (100 nCi) were added to the cells. The cell plates were incubated at 37° C., 5% CO2 for 1-2 hours. After washing the cells with uptake buffer, scintillation fluid was added (40 microliters/well) and ^14C-AMG uptake was measured by counting radioactivity using a scintillation coulter (TopCoulter NXT; Packard Instruments).
The IC50 of a compound with regard to a given target is determined by fitting the relevant data, using the Levenburg Marquardt algorithm, to the equation: y=A+((B−A)/(1+((C/x)^D))) wherein A is the minimum y value; B is the maximum y value; C is the IC50; and D is the slope.

IC50, < 500 nM:
CCOc1ccc(Cc2cc([C@H]3[C@H](O)[C@@H](O)[C@H](O)CN3Cc3ccccc3)ccc2Cl)cc1 [(2S,3S,4S,5R)-1-Benzyl-2-[4-chloro-3-(4-ethoxy-benzyl)-phenyl]-piperidine-3,4,5-triol], CCOc1ccc(Cc2cc([C@H]3[C@H](O)[C@@H](O)[C@H](O)CN3CC(C)C)ccc2Cl)cc1 [(2S,3S,4S,5R)-2-[4-Chloro-3-(4-ethoxy-benzyl)-phenyl]-1-isobutyl-piperidine-3,4,5-triol], C=CCNC(=O)N1C[C@@H](O)[C@H](O)[C@@H](O)[C@@H]1c1ccc(Cl)c(Cc2ccc(OCC)cc2)c1 [(2S,3S,4S,5R)-2-[4-Chloro-3-(4-ethoxy-benzyl)-phenyl]-3,4,5-trihydroxy-piperidine-1-carboxylic acid allyl amide], CCOc1ccc(Cc2cc(C3NC(CO)[C@@H](O)[C@H](O)[C@H]3O)ccc2Cl)cc1 (stereo partly drawn) [(3S,4R,5R)-2-[4-Chloro-3-(4-ethoxy-benzyl)-phenyl]-6-hydroxymethyl-piperidine-3,4,5-triol], CCOc1ccc(Cc2cc([C@@H]3OC(OCc4ccccc4)[C@@H](O)[C@H](O)[C@H]3O)ccc2Cl)cc1 (stereo partly drawn) [(3S,4R,5R,6S)-2-Benzyloxy-6-[4-chloro-3-(4-ethoxy-benzyl)-phenyl]-tetrahydro-pyran-3,4,5-triol], CCOc1ccc(Cc2cc([C@@H]3O[C@H](SC[C@H](N)C(=O)O)[C@@H](O)[C@H](O)[C@H]3O)ccc2Cl)cc1 [(R)-2-Amino-3-{(2R,3S,4R,5R,6S)-6-[4-chloro-3-(4-ethoxy-benzyl)-phenyl]-3,4,5-trihydroxy-tetrahydro-pyran-2-ylsulfanyl}-propionic acid], COC1O[C@@H](c2ccc(Cl)c(Cc3ccc(OC(=S)N(C)C)cc3)c2)[C@H](O)[C@@H](O)[C@@H]1O (stereo partly drawn) [Dimethyl-thiocarbamic acid O-{4-[2-chloro-5-((2S,3R,4R,5S)-3,4,5-trihydroxy-6-methoxy-tetrahydro-pyran-2-yl)-benzyl]-phenyl} ester], CCOc1ccc(Cc2cc([C@@H]3O[C@H](SCCNC(C)=O)[C@@H](O)[C@H](O)[C@H]3O)ccc2Cl)cc1 [N-(2-{(2R,3S,4R,5R,6S)-6-[4-Chloro-3-(4-ethoxy-benzyl)-phenyl]-3,4,5-trihydroxy-tetrahydro-pyran-2-ylsulfanyl}-ethyl)-acetamide], CCOc1ccc(C(=O)c2cc([C@@H]3O[C@H](OC)[C@@H](O)[C@H](O)[C@H]3O)ccc2Cl)cc1 [[2-Chloro-5-((2S,3R,4R,5S,6S)-3,4,5-trihydroxy-6-methoxy-tetrahydro-pyran-2-yl)-phenyl]-(4-ethoxy-phenyl)-methanone], CCOc1ccc(Cc2cc([C@@H]3OC(OCC(=O)OC)[C@@H](O)[C@H](O)[C@H]3O)ccc2Cl)cc1 (stereo partly drawn) [{(3S,4R,5R,6S)-6-[4-Chloro-3-(4-ethoxy-benzyl)-phenyl]-3,4,5-trihydroxy-tetrahydro-pyran-2-yloxy}-acetic acid methyl ester]
